Assay results reported in PMC12410758, “A novel sulfamoylphenyl-dihydro-thiadiazole derivative as a dual EGFR and carbonic anhydrase inhibitor for cancer therapy” (PLOS One, 2025).
Like-named read-outs stand apart in the source and are kept apart here. Values belong to the molecule of their own block, whether it stands above or below them.

Experiments:
MCF-7 cells = test: MTT cytotoxicity, MCF-7; conditions: for Average of Relative viability of cells (%) MCF-7: 24 h; for IC50: read-out: In vitro Cytotoxicity IC50 (µM) MCF-7, mean ± SEM of three independent experiments
Procedure: (§1) The cell lines mentioned above were used to determine the inhibitory effects of compounds on cell growth
(§2) using the MTT assay. This colorimetric assay is based on the conversion of the yellow tetrazolium bromide (MTT) to a purple formazan derivative by mitochondrial succinate dehydrogenase in viable cells. Cell lines
(§3) Antibiotics added were 100 units/ml penicillin and 100µg/ml streptomycin at 37 C in a 5% Co2 incubator. The cell lines were seedesin a 96-well
(§4) plate at a density of 1.0x10^4 cells/well. at 37 C for 48 h under 5% Co2. After incubation the cells were treated
(§5) with different concentration of compounds and incubated for 24 h. After 24 h of drug treatment, 20 µl of MTT solution at 5mg/ml was added and incubated for 4 h. Dimethyl sulfoxide (DMSO) in volume of 100 µl is
(§6) added into each well to dissolve the purple formazan formed. The colorimetric assay is measured and recorded
(§7) The relative cell viability in percentage was
(§8) calculated as (A570 of treated samples/A570 of untreated sample) X 100.

MDA-MB-231 cells [1] = test: Apoptosis analysis, Annexin V-FITC/PI flow cytometry
Procedure: Apoptosis detection was carried out using Annexin V fluorescein isothiocyanate (V-FITC)/PI kit according to the reported procedures. MDA-MB-231cells cells were seeded and incubated for 24 h, then treated with
The cells were then collected, washed 3 times with PBS, fixed with ice-
cold absolute ethanol (70%) and stained with Annexin-V-FITC/propidium iodide (PI) using a double staining
kit for 20 min in the dark. Epics XL-MCL™ Flow Cytometer was used to evaluate the apoptosis.

hCA_XII = biological target: T1, hCA_XII (Homo sapiens, UniProt O43570); test: In vitro carbonic anhydrase (XII) inhibition (assay kit, BPS Bioscience); type: biochemical; conditions: mean ± SEM of three independent experiments
T1 construct: purchased BPS Bioscience, USA

MDA-MB-231 cells [2] = test: Cell cycle analysis, PI flow cytometry; type: cell-based; conditions: 16.13 µM, 48 h
[3] = MTT safety assay, non-cancerous Vero cells; type: cell-based; conditions: African green monkey, mean ± SEM of three independent experiments, read-out: In vitro Cytotoxicity IC50 (µM) Vero
Procedure: The cell line (Vero) was obtained from ATCC via Holding company for biological products and vaccines
(VACSERA) , Cairo, Egypt.
The different cell line mentioned above were used to determine the inhibitory effects of compounds on c ell growth using the MTT assay. This colorimetric assay is based on the conversion of the yellow tetrazolium
bromide (MTT) to a purple formazan derivative by mitochondrial succinate dehydrogenase in viable cells.
Antibiotics added were 100
units/ml penicillin and 100µg/ml streptomycin at 37 C in a 5% Co2 incubator. The cellswere seedesin a 96-
well plate at a density of 1.0x10^4 cells/well.at 37 C for 48 h under 5% Co2. After incubation the cells were treated with different concentration of compounds and incubated for 24 h. After 24 h of drug treatment, 20 µl
of MTT solution at 5mg/ml was added and incubated for 4 h. Dimethyl sulfoxide(DMSO) in volume of 100µl
is added into each well to dissolve the purple formazan formed. The colorimetric assay is measured and
The relative cell viability in percentage
was calculated as (A570 of treated samples/A570 of untreated sample) X 100.

MDA-MB-231 cells [4] = test: qRT-PCR of apoptotic markers in MDA-MB-231 cells; conditions: 16.13 µM, 72 h, control set to 1, mean ± SEM
Procedure: Quantitative Reverse Transcription-Poly¬merase Chain Reaction (qRT-PCR) Analysis
Cells were seeded in T-25 cm2 tissue culture flasks 24h before treatment with DMSO vehicle (0.01%) or
Total RNA was extracted, reverse transcribed, and assayed
for BAX, Bcl-2, caspases-8, and caspases-9 genes expression by quantitative RT-PCR. ß-actin serves as the
housekeeping gene. The quantity of BAX, Bcl-2, Caspase-8 and Caspase-9 mRNA in control and compound
Total RNA from vehicle-treated control
(0.01% DMSO) and 14-treated MDA-231 cells were extracted as-per the manufacturer instructi¬ons (RNeasy
mini kit, Qiagen, Germany). After RNA extraction, cDNA was prepared using the Revert Aid First Strand
cDNA Synthesis kit (Thermo Scientific, USA). Amplification of target cDNA for apoptosis markers and ß-
actin [as a normalization (housekeeping) gene] was done using one-step RT-PCR SYBR® Green kit Master Mix (Bio‐Rad Laboratories, USA) on Rotor-Gene Q real-time PCR thermal cycler instrument. cDNA (2 μl
aliquots) was mixed with 1 μl of forward primer, 1 μl reverse primer (Table below), 10 μl master mixture,
and the reaction volume was completed to 20 μl with nuclease-free water. All experiments were performed in

EGFR [5] = biological target: T2, EGFR (Homo sapiens, UniProt P00533); test: In vitro EGFR inhibition (EGFR Kinase Assay Kit, BPS Bioscience); type: biochemical; conditions: mean ± SEM of three independent experiments
T2 construct: purchased BPS Bioscience, USA
Procedure: (§9) • The in vitro inhibitory activity of the tested compounds against EGFR was accomplished using EGFR
(§10) Kinase Assay Kit (BPS Bioscience, USA) at different dilutions of 1000, 300, 100, 30, 10, 3, 1, and 0.3 nM.
In vitro carbonic anhydrase inhibition

MDA-MB-231 cells [6] = test: MTT cytotoxicity, MDA-MB-231; conditions: for Average of Relative viability of cells (%) MDA-231: 24 h; for IC50: read-out: In vitro Cytotoxicity IC50 (µM) MDA-231, mean ± SEM of three independent experiments
Procedure: as §1, §2, §3, §4, §5, §6, §7, §8

hCA_IX = biological target: T3, hCA_IX (Homo sapiens, UniProt Q16790); test: In vitro carbonic anhydrase (IX) inhibition (assay kit, BPS Bioscience); type: biochemical; conditions: mean ± SEM of three independent experiments
T3 construct: purchased BPS Bioscience, USA
Procedure: as §9, §10
In vitro carbonic anhydrase inhibition

T-47D = tested on: T-47D; set-up: method as in PMID 35896557; conditions: read-out: anti-proliferative IC50, T-47D; cited from earlier work
MDA-MB-231 = tested on: MDA-MB-231; set-up: method as in PMID 35896557; conditions: read-out: anti-proliferative IC50, MDA-MB-231; cited from earlier work
EGFR [7] = biological target: T2, EGFR; set-up: method as in PMID 35896557; conditions: read-out: EGFR inhibition IC50; cited from earlier work
MDA-MB-231 cells [8] = tested on: MDA-MB-231 cells; set-up: method as in PMID 35896557; conditions: cited from earlier work

T2 sequence (P00533 25-1210): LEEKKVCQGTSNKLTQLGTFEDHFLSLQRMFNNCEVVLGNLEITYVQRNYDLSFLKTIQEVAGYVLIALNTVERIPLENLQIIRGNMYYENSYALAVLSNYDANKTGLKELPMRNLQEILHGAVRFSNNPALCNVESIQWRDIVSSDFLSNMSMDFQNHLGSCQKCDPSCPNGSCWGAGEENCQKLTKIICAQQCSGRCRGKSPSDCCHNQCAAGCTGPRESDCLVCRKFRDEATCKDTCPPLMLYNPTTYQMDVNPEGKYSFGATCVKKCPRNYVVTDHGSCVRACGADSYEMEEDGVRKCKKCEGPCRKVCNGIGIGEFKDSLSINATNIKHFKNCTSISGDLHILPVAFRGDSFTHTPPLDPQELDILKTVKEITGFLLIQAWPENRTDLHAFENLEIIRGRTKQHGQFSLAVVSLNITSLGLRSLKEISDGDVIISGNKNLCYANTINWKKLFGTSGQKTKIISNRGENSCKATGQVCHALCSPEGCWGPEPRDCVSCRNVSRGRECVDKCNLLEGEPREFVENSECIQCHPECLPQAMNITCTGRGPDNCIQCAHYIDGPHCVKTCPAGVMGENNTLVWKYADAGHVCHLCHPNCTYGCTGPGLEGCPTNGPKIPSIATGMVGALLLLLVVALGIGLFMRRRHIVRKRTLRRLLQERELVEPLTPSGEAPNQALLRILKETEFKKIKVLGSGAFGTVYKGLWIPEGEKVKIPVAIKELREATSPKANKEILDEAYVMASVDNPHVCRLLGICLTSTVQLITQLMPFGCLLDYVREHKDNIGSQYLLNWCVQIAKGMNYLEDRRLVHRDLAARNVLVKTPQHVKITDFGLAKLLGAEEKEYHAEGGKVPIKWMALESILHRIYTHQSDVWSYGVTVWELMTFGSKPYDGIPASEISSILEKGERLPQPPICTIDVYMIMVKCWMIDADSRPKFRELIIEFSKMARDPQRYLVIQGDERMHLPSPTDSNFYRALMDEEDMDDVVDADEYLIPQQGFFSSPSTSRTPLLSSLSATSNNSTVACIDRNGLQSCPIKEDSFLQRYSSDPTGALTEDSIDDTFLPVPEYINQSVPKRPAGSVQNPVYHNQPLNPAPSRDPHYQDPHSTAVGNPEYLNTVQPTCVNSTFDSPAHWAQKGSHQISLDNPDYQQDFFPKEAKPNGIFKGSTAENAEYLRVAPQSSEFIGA
T1 sequence (O43570 25-354): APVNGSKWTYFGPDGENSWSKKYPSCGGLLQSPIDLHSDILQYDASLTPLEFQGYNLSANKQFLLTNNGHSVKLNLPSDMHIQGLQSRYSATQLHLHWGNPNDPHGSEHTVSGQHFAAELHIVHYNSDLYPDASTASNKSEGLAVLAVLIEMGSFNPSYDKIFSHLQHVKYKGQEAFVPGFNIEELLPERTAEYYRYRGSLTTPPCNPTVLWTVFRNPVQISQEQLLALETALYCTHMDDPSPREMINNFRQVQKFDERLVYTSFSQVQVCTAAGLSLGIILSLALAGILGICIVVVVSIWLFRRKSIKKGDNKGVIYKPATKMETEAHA

IC50 (hCA_XII): 58 ± 0.3 nM
IC50 (EGFR [5]): 10.1 ± 0.29 nM
IC50 (hCA_IX): 79 ± 0.3 nM
SMILES: CCOC(=O)c1nn(-c2ccc(S(N)(=O)=O)cc2)/c(=N/N=C(\C)c2ccc(NC(C)=O)cc2)s1 [Compound 14, Ethyl (Z)-5-(((E)-1-(4-acetamidophenyl)ethylidene)hydrazineylidene)-4-(4-sulfamoylphenyl)-4,5-dihydro-1,3,4-thiadiazole-2-carboxylate]
Average of Relative viability of cells (%) MCF-7 (MCF-7 cells; 1.56 µM): 100%
Average of Relative viability of cells (%) MCF-7 (MCF-7 cells; 3.125 µM): 90.3%
Average of Relative viability of cells (%) MCF-7 (MCF-7 cells; 6.25 µM): 71.7%
Average of Relative viability of cells (%) MCF-7 (MCF-7 cells; 12.5 µM): 57.6%
Average of Relative viability of cells (%) MCF-7 (MCF-7 cells; 25 µM): 46.5%
Average of Relative viability of cells (%) MCF-7 (MCF-7 cells; 50 µM): 35.1%
Average of Relative viability of cells (%) MCF-7 (MCF-7 cells; 100 µM): 24.4%
IC50 (MCF-7 cells): 22.6 ± 1.5 µM
Apoptosis Late (MDA-MB-231 cells [1]; 16.13 µM, 48 h, MDA-MB-231, untreated 0.32): 58.27%
Necrosis (MDA-MB-231 cells [1]; 16.13 µM, 48 h, MDA-MB-231, untreated 0.45): 0.03%
Apoptosis Early (MDA-MB-231 cells [1]; 16.13 µM, 48 h, MDA-MB-231, untreated 3.84): 22.50%
viability at 16.13 µM (MDA-MB-231 cells [1]; Homo sapiens, MDA-MB-231, 48 h, read-out: Viable cells): 19.2%
Cell cycle distribution (%) % G2/M (MDA-MB-231 cells [2]; untreated 10.59): 7.94%
Cell cycle distribution (%) %Sub-G1 (MDA-MB-231 cells [2]; untreated 19.48): 19.18%
Cell cycle distribution (%) %S (MDA-MB-231 cells [2]; untreated 24.95): 23.78%
Cell cycle distribution (%) %G1 (MDA-MB-231 cells [2]; untreated 44.98): 49.10%
IC50 at 24 h [3]: 148.3 ± 1.22 µM
Gene expression (Fold Change) BAX (MDA-MB-231 cells [4]): 3.06 ± 0.18 Fold Change
Gene expression (Fold Change) BAX/Bcl-2 ratio (MDA-MB-231 cells [4]): 5.56 ± 0.69 Fold Change
Gene expression (Fold Change) Bcl-2 (MDA-MB-231 cells [4]): 0.55 ± 0.05 Fold Change
Gene expression (Fold Change) Caspases-8 (MDA-MB-231 cells [4]): 2.37 ± 0.07 Fold Change
Gene expression (Fold Change) Caspases-9 (MDA-MB-231 cells [4]): 2.26 ± 0.15 Fold Change
Average of Relative viability of cells (%) MDA-231 (MDA-MB-231 cells [6]; 1.56 µM): 100%
Average of Relative viability of cells (%) MDA-231 (MDA-MB-231 cells [6]; 3.125 µM): 86.3%
Average of Relative viability of cells (%) MDA-231 (MDA-MB-231 cells [6]; 6.25 µM): 69.9%
Average of Relative viability of cells (%) MDA-231 (MDA-MB-231 cells [6]; 12.5 µM): 51.0%
Average of Relative viability of cells (%) MDA-231 (MDA-MB-231 cells [6]; 25 µM): 38.6%
Average of Relative viability of cells (%) MDA-231 (MDA-MB-231 cells [6]; 50 µM): 26.1%
Average of Relative viability of cells (%) MDA-231 (MDA-MB-231 cells [6]; 100 µM): 18.5%
IC50 (MDA-MB-231 cells [6]): 16.1 ± 1.2 µM

SMILES: COc1ccc(/C=C2/SC(N3N=C(c4cccc5ccccc45)CC3c3ccc(F)cc3)=NC2=O)cc1O (centres unmarked) [compound III]
IC50 (T-47D): 0.62 µM
IC50 (MDA-MB-231): 3.14 µM
IC50 (EGFR [7]): 0.267 µM
apoptosis induction (MDA-MB-231 cells [8]): induced apoptosis
cell cycle arrest phase (MDA-MB-231 cells [8]): G2/M phase

SMILES: CC(=O)Nc1nnc(S(N)(=O)=O)s1 [Acetazolamide, reference compound]
IC50 (MCF-7 cells): 7.26 ± 0.3 µM
IC50 at 24 h [3]: 77.57 ± 0.57 µM
IC50 (MDA-MB-231 cells [6]): 7.64 ± 0.4 µM
